Results as given in PMC7558535, “In Vitro Metabolism of DWP16001, a Novel Sodium-Glucose Cotransporter 2 Inhibitor, in Human and Animal Hepatocytes” (Pharmaceutics, 2020).

Legend:
Assay type in all cases: in vitro ADME
CYP3A4 = target: T1, CYP3A4 (Homo sapiens, UniProt P08684); assay: Immunoinhibition of DWP16001 metabolism by anti-CYP3A4 antibody in human liver microsomes; conditions: 5 μM DWP16001, pooled human liver microsomes
T1 construct: purchased Corning Life Sciences
Description: DWP16001 (5 μM) in human liver microsomes was incubated with varying concentrations of antibody specific for human CYP3A4 (anti-CYP3A4 antibody). Prior to incubation, human liver microsomes were pretreated with anti-CYP3A4 antibody for 15 min on ice. Reactions were initiated by addition of an aliquot of NADPH-generating system; mixtures were incubated for 60 min at 37 °C. Reactions were terminated by addition of 100 µL of ice-cold ketoconazole (200 ng/mL) in acetonitrile; following centrifugation at 15,000× g for 10 min at 4 °C. Aliquots of supernatant (150 µL) was evaporated using a vacuum concentrator and re-dissolved in 100 µL of 20% methanol; 5 µL aliquots were injected into an LC-MS/MS system.

human hepatocytes = assay: Metabolic stability in human hepatocytes
Description: (§1) To evaluate the metabolic stability of DWP16001 in human, dog, monkey, mouse, and rat hepatocytes, pooled cryopreserved hepatocytes were carefully thawed in recovery medium and resuspended in incubation medium (Krebs–Henseleit buffer for mouse, rat, and human; William’s E media for dog and monkey) to 0.5 × 10^6 cells/mL for mouse, 0.67 × 10^6 cells/mL for rat, and 1.0 × 10^6 cells/mL for dog, monkey, and human in accordance with the manufacturer’s protocols. Then, 60-μL aliquots of these hepatocyte suspensions and an equal volume of 2 μM DWP16001 in incubation medium were mixed in 96-well plates and incubated in triplicate for 0, 30, 60, 90, 120, 180, or 240 min in a CO2 incubator at 37 °C. Reactions were stopped by addition of 120 µL of ice-cold acetonitrile to each well and the cell suspension was sonicated for 5 min at 4 °C, followed by centrifugation at 15,000× g for 10 min at 4 °C after 5 min of sonication. 80-µL aliquots of the supernatants were then vortex-mixed with 20 μL of ice-cold ketoconazole (an internal standard) in acetonitrile and analyzed by LC–tandem mass spectrometry (LC-MS/MS). The peak area ratios of DWP16001 versus internal standard at each sampling point were used for the subsequent calculation. Elimination parameters, including half-life (t1/2), intrinsic clearance (Clint), and hepatic clearance (Clhep) of DWP16001 in mouse, rat, dog, monkey, and human were calculated by the following equations [19]. (1) t1/2min=ln2/−k elimination slope (2) ClintmL/min/kg=ln2/t1/2×mL incubation/hepatocytes 10^6 cells×B×10^6 cells/g liver×A g liver/kg BW (3) ClhepmL/min/kg=Qh×Clint/Qh+Clint (4) Hepatic extraction ratio = Clhep/Qh
(§2) Here, A has values of 87.5, 40, 32, 32, and 25.7; B has values of 135, 117, 215, 120, and 139; Qh (representing hepatic blood flow) has values of 90, 55.2, 30.9, 43.4, and 20.7 mL/min/kg, for mouse, rat, dog, monkey, and human, respectively. Hepatic extraction ratio values of ≤ 0.25, 0.25–0.75, and ≥ 0.75 were regarded as low, moderate, and high, respectively.

[1] = Metabolic stability in human hepatocytes; conditions: pooled cryopreserved hepatocytes
Description: as §1, §2

rat hepatocytes = assay: Metabolic stability in rat hepatocytes
Description: as §1, §2

[2] = Metabolic stability in rat hepatocytes; conditions: pooled cryopreserved hepatocytes
Description: as §1, §2

UGT1A4 = target: T2, UGT1A4 (Homo sapiens, UniProt P22310); assay: UGT screening, cDNA-expressed UGT1A4
T2 construct: purchased Corning Life Sciences
T2 sequence (P22310 29-534): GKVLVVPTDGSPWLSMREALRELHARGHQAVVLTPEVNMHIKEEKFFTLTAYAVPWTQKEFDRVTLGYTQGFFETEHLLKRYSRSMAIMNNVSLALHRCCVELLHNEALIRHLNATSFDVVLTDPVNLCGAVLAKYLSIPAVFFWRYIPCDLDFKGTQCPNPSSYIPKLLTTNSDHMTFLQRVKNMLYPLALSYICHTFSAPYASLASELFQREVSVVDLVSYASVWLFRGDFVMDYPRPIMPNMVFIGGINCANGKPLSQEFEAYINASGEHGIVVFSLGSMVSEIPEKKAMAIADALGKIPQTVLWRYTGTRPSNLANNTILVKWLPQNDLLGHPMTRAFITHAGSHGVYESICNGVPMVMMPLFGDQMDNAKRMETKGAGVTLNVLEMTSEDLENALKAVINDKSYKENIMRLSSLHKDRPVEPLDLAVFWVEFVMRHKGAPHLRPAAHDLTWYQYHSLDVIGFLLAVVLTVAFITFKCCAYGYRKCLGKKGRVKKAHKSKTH
Description: To screen for UGT enzymes responsible for glucuronidation of DWP16001, 100 μL of reaction mixtures containing 13 human cDNA-expressed UGT enzymes (1A1, 1A3, 1A4, 1A6, 1A7, 1A8, 1A9, 1A10, 2B4, 2B7, 2B10, 2B15, and 2B17) at 0.1 mg protein/mL, 5 mM UDPGA, 0.025 mg/mL alamethicin, and 25 μM DWP16001 or M1 in 50 mM Tris buffer (pH 7.4) were incubated at 37 °C for 30 min in triplicate. Reactions were stopped by adding 100 μL of ketoconazole (internal standard, 200 ng/mL) in acetonitrile, followed by vortex-mixing and centrifugation (15,000× g, 8 min, 4 °C). The supernatant (75 μL) was diluted with equal volume of 30% acetonitrile and aliquots (5 μL) were injected into an LC-MS/MS system.

[3] = Metabolic stability in mouse hepatocytes; conditions: pooled cryopreserved hepatocytes, mouse hepatocytes
Description: as §1, §2

mouse hepatocytes = assay: Metabolic stability in mouse hepatocytes
Description: as §1, §2

T1 sequence (P08684 whole entry): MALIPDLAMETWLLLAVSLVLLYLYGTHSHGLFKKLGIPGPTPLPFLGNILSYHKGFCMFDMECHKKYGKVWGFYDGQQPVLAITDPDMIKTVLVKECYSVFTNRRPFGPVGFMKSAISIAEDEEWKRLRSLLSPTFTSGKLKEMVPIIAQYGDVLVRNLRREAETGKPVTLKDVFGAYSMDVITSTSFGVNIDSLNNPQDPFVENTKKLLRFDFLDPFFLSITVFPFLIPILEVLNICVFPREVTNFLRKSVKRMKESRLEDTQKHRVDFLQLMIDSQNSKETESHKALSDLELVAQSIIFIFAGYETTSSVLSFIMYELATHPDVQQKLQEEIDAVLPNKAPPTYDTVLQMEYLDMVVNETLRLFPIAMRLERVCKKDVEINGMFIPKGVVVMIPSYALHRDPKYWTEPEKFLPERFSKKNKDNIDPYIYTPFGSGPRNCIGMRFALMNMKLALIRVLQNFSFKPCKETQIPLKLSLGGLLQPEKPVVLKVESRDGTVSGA

Formation of M1 and M2 from DWP16001 with increasing anti-CYP3A4 antibody (CYP3A4): decreased | Hepatic extraction ratio (human hepatocytes): 0.22 | Clhep (human hepatocytes; well-stirred model): 4.5 mL/min/kg | CLint scaled at 1 μM [1]: 5.7 mL/min/kg | half-life at 1 μM ([1]; 37 °C, 0-240 min): 14.4 h | Hepatic extraction ratio (rat hepatocytes): 0.15 | Clhep (rat hepatocytes; well-stirred model): 8.3 mL/min/kg | CLint scaled at 1 μM [2]: 9.8 mL/min/kg | half-life at 1 μM ([2]; 37 °C, 0-240 min): 16.5 h | Substrate of UGT1A4 (UGT1A4): substrate | CLint scaled at 1 μM [3]: 61.4 mL/min/kg | half-life at 1 μM ([3]; 37 °C, 0-240 min): 8.88 h | Hepatic extraction ratio class (mouse hepatocytes; mouse): moderate (0.25–0.75) | Hepatic extraction ratio (mouse hepatocytes; mouse hepatocytes): 0.41 | Clhep (mouse hepatocytes; mouse hepatocytes, well-stirred model): 36.5 mL/min/kg
Structure (SMILES): OC[C@H]1O[C@@H](c2cc(Cc3ccc(C4CC4)cc3)c(Cl)c3c2CCO3)[C@H](O)[C@@H](O)[C@@H]1O [DWP16001, (2S,3R,4R,5S,6R)-2-(7-chloro-6-(4-cyclopropylbenzyl)-2,3-dihydrobenzofuran-4-yl)-6-(hydroxymethyl)tetrahydro-2H-pyran-3,4,5-triol]
Hepatic extraction ratio class (human hepatocytes): low (Hepatic extraction ratio values of ≤ 0.25) | Hepatic extraction ratio class (rat hepatocytes): low (Hepatic extraction ratio values of ≤ 0.25)
